Source: PubChem BioAssay AID2743 (NMMLSC, 2010)
Several values for one entry are separate records, joined by “and”; a condition that tells them apart may be missing. Equal values may be shown once. Activity calls are given as the source filed them.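 Rule for the calls: active = fitted half-maximal concentration for change in GFP expression of 33 µM or less; inactive = the rest.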

Experiments:
[1] = test system: S. cerevisiae AGP1-GFP strain, flow cytometry GFP, 3 h; assay: potency of AGP1-GFP expression modulators in yeast, dose response, cell-based, flow cytometry, S. cerevisiae, MLPCN hits (AID 2743)
[2] = as above; details: S. cerevisiae AGP1-GFP strain, flow cytometry GFP, 3 h; at 33 µM (top of the series)

| Compound | EC50 [1] | GFP fluorescence (kMESF) [2] |
| --- | --- | --- |
| O=C(C#Cc1cccc([N+](=O)[O-])c1)c1ccccc1 | 305 nM |  |
| CCOC(=O)CS(=O)(=O)c1nc(-c2ccccc2)cc(C(F)(F)F)n1 | 1380 nM |  |
| CCCOc1ccc(C(=O)NNC(=S)NC(=O)CC)cc1 | 1940 nM |  |
| CC(=O)c1ccc(N2CCN(C(=O)c3ccc(Br)cc3)CC2)c(F)c1 | 6920 nM |  |
| Cc1ccc(S(=O)(=O)/N=C(\Sc2ccccc2)c2ccccc2)cc1 | 822 nM |  |
| Cc1cccc(C)c1NC(=O)C(Cl)C(=O)c1ccccc1 (stereo not drawn) | 781 nM |  |
| COc1ccc(N2CCN(C(=O)c3ccc(Br)cc3)CC2)c([N+](=O)[O-])c1 | 3840 nM |  |
| CCOC(=O)CCS(=O)(=O)c1nc(-c2ccccc2)cc(C(F)(F)F)n1 | 941 nM |  |
| CC(C)(C)C(=O)C(Cl)C(=O)Nc1ccccc1 (stereo not drawn) | 570 nM |  |
| CNc1nc(N)c([N+](=O)[O-])c(Nc2cccc(F)c2)n1 | 9390 nM |  |
| COC(=O)CCS(=O)(=O)c1nc(-c2ccccc2)cc(C(F)(F)F)n1 | 943 nM |  |
| CS(=O)(=O)c1nc(-c2ccccc2)cc(C(F)(F)F)n1 | 653 nM |  |
| CCN(CC)C(=O)Oc1ccnc2cc(Cl)ccc12 | 7220 nM |  |
| O=C(OCC(=O)N1CCN(C(=O)c2ccco2)CC1)c1cc(-c2cccc(Br)c2)nc2ccccc12 | 2810 nM |  |
| CS(=O)(=O)c1nc(-c2cccs2)cc(C(F)(F)F)n1 | 872 nM |  |
| O=C(OCC(=O)N1CCN(C(=O)c2ccco2)CC1)c1cc(-c2ccccc2)nc2ccccc12 | 2830 nM | 43.7 kMESF (inactive) |
| O=C(Oc1ccnc2cc(Cl)ccc12)N1CCCCCC1 | 3860 nM |  |
| O=C(NC(=S)NNC(=O)c1cnccn1)c1ccc(F)cc1 |  | 37.3 kMESF (inactive) |
| COc1cc(N=c2ssnc2Cl)c(OC)cc1Cl |  | 27.6 kMESF (inactive) and 26.1 kMESF (inactive) |
| Cc1ccc(N=Nc2ccc(O)c3ncccc23)cc1 |  | 35.1 kMESF (inactive) |
| Cc1c(NC2=C(Cl)C(=O)N(c3ccccc3)C2=O)c(=O)n(-c2ccccc2)n1C |  | 41.3 kMESF (inactive) |

| Compound | EC50 [1] | GFP fluorescence (kMESF) [2] |
| --- | --- | --- |
| COc1cc(NC(=O)c2ccccc2[N+](=O)[O-])ccc1NC(=O)c1cc2ccccc2o1 |  | 44.3 kMESF (inactive) |
| CC(=O)Oc1ccc(N2C(=O)C3C4C=CC(CO)(O4)C3C2=O)cc1 (stereo not drawn) |  | 41.3 kMESF (inactive) |
| Cc1cccc(NC(c2ccc(C)s2)c2ccc3ccc(C)nc3c2O)n1 (stereo not drawn) |  | 32.5 kMESF (inactive) |
| O=C(C#Cc1ccccc1)c1ccco1 |  | 29.7 kMESF (inactive) |
| CCOC(=O)CSC1=NC(=O)/C(=C/c2ccc(Br)cc2)S1 |  | 37 kMESF (inactive) |
| CC(=O)Oc1ccc(/C=c2\sc3ncnn3c2=O)cc1 |  | 36.7 kMESF (inactive) |
| Cc1ccc2nc(Cl)c3nnnn3c2c1 |  | 33.8 kMESF (inactive) |
| ClC(Cl)(c1nnnn1-c1ccccc1)c1nnnn1-c1ccccc1 |  | 35.1 kMESF (inactive) |
| CC[C@]1(c2ccccc2OC)ON(c2ccccc2C(F)(F)F)C1=O |  | 32.6 kMESF (inactive) |
| O=C(Nc1nnc(-c2ccc3c(c2)CCCC3)o1)c1ccc(Cl)cc1Cl |  | 20.9 kMESF (inactive) |
| COc1ccc(N2C(=O)/C(=C/c3cccs3)C(=O)NC2=S)cc1 |  | 27.3 kMESF (inactive) |
| Cc1cc(/C=C2/SC(=S)N(c3cccc(Cl)c3)C2=O)c(C)n1-c1cccnc1 |  | 46.4 kMESF (inactive) |
| CCN1/C(=C/C=C/c2sc3ccccc3[n+]2CC)Sc2ccccc21 |  | 70 kMESF (inactive) |
| O=c1cc(-c2ccccc2)cc(-c2ccccc2)n1O |  | 22.5 kMESF (inactive) |
| COc1cccc2sc(Nc3nc(-c4ccccn4)cs3)nc12 |  | 34.7 kMESF (inactive) |
| Cc1[nH]c2ccccc2c1C(=O)COC(=O)c1ccc([N+](=O)[O-])s1 |  | 16.9 kMESF (inactive) |
| Cc1ccc(S(=O)(=O)Cc2cc(F)c([N+](=O)[O-])cc2[N+](=O)[O-])cc1 |  | 37 kMESF (inactive) |
| CCN(CC(=O)Nc1cc(S(=O)(=O)N2CCOCC2)ccc1Cl)Cc1ccccc1 |  | 37.6 kMESF (inactive) |
| COc1ccccc1N=Cc1nc(-c2ccccc2)oc1OC(C)=O |  | 35.1 kMESF (inactive) |
| O=C(OCn1ncc(Br)c(Br)c1=O)c1ccc(F)cc1 |  | 43.7 kMESF (inactive) |
| Cc1ccc(S(=O)(=O)ON2C(=O)c3ccccc3C2=O)c(C)c1 |  | 33 kMESF (inactive) |

| Compound | EC50 [1] | GFP fluorescence (kMESF) [2] |
| --- | --- | --- |
| CCCS(=O)(=O)c1nnnn1-c1cccc(OC)c1 |  | 35.1 kMESF (inactive) |
| CN1CCN(C(=O)c2cc(COc3c(F)cccc3F)on2)CC1c1ccccc1 (stereo not drawn) | 3890 nM |  |
| COc1cccc(/C=N/Nc2ccc([N+](=O)[O-])cn2)c1O |  | 29.3 kMESF (inactive) |
| CC(OC(=O)c1ccco1)C(=O)Nc1nc(-c2ccccc2)cs1 (stereo not drawn) |  | 40.9 kMESF (inactive) |
| O=c1c2cc(Cl)ccc2nc(-c2ccc([N+](=O)[O-])cc2)n1O |  | 23 kMESF (inactive) |
| COc1cccc(/C=C2\SC(=S)N(CCCC(=O)Nc3ccc(C(=O)O)cc3)C2=O)c1 |  | 34.8 kMESF (inactive) |
| Fc1cccc(Nc2ncnc3c2cnn3-c2ccccc2)c1 |  | 37 kMESF (inactive) |
| O=C(Oc1cccc2cccnc12)c1ccc(Br)o1 |  | 38.2 kMESF (inactive) |
| CCC(C)/C(C)=N/NC(=O)c1ccc(COc2ccc(Cl)c(C)c2)cc1 (stereo not drawn) |  | 41.2 kMESF (inactive) |
| Nc1c(C(=O)c2cccs2)sc2nsc(SCCN3CCCCC3)c12 |  | 35.6 kMESF (inactive) |
| CNC(CC(=O)c1ccc([N+](=O)[O-])cc1)C(Cl)(Cl)Cl (stereo not drawn) |  | 25.2 kMESF (inactive) |
| COc1ccccc1C(=O)NNC(=S)NC(=O)c1ccco1 |  | 38.7 kMESF (inactive) |
| COc1ccccc1[C@@]1(C)ON(c2ccccc2C(F)(F)F)C1=O |  | 30.9 kMESF (inactive) |
| CCCCOc1ccc(C(=O)NNC(=S)NC(=O)CC)cc1 |  | 39.6 kMESF (inactive) |
| COc1cc(/C=C/c2ccc3c(Br)cc(Br)c(O)c3n2)ccc1O |  | 27.7 kMESF (inactive) |
| COc1ccc(/C=C2/C(=O)ON=C2c2ccccc2)cc1OC |  | 27.1 kMESF (inactive) |
| O=[N+]([O-])c1ccc(N=Nc2c(Cl)cc(O)cc2Cl)cc1 |  | 41.8 kMESF (inactive) |
| O=C(COc1ccccc1)N1CCN(c2ncnc3c2cnn3-c2ccccc2)CC1 |  | 35.1 kMESF (inactive) |
| Cc1ccc2c(nc3s/c(=C\c4ccc(-c5ccccc5C(=O)O)o4)c(=O)n32)c1C |  | 49.9 kMESF (inactive) |
| CN1CCN(C(c2ccc(C(F)(F)F)cc2)c2ccc3cccnc3c2O)CC1 (stereo not drawn) |  | 34 kMESF (inactive) |
| O=C(/C=C/Sc1ncn[nH]1)c1ccc(Cl)cc1 |  | 38 kMESF (inactive) |

| Compound | EC50 [1] | GFP fluorescence (kMESF) [2] |
| --- | --- | --- |
| O=C(Nc1nnc(-c2ccc(F)cc2)o1)c1cccc([N+](=O)[O-])c1 |  | 44.5 kMESF (inactive) |
| O=C(NC(=S)NNC(=O)[C@H]1C[C@@H]1c1ccccc1)c1cccc(F)c1 |  | 30.4 kMESF (inactive) |
| COc1ccc(N2C(=O)C(Cl)=C(Nc3c(C)n(C)n(-c4ccccc4)c3=O)C2=O)cc1 |  | 36.2 kMESF (inactive) |
| CC[C@H](C)/C=C(C)/C=C/C1=CC2=C(Cl)C(=O)[C@@](C)(OC(C)=O)C(=O)C2=CO1 |  | 1.57 kMESF (inactive) |
| N#Cc1cc([N+](=O)[O-])c(-n2nnc3ccccc32)c([N+](=O)[O-])c1 |  | 41.5 kMESF (inactive) |
| O=C(O)c1cc[c]([Hg][Cl])cc1 |  | 32.1 kMESF (inactive) |
| Cc1nn2c(NCc3ccccn3)c3c(nc2c1-c1ccccc1)CCC3 |  | 40.6 kMESF (inactive) |
| C=CCOc1ccccc1C(=O)/C=C1/C(=O)Nc2ccccc21 |  | 43.2 kMESF (inactive) |
| CCN(CC)c1ccc(/C=C2\C(=O)c3ccc(C(=O)O)cc3C2=O)cc1 |  | 747 kMESF (inactive) |
| Cc1ccc2[nH]cc(/C=C/c3cc[n+](C)cc3)c2c1 |  | 48.3 kMESF (inactive) |
| COc1cccc(/C=C2\C(=O)N(c3cccc(C)c3)C(=O)c3ccccc32)c1 |  | 45.3 kMESF (inactive) |
| Cc1cc(C)c(OCC(=O)Nc2nc(-c3ccccn3)cs2)c(C)c1 |  | 28.8 kMESF (inactive) |
| COc1cc(NC(=O)c2cccc(C)c2)ccc1NC(=O)c1cc2ccccc2o1 |  | 44.2 kMESF (inactive) |
| O=C1C(Cl)=C(N2CCN(Cc3ccccc3)CC2)C(=O)N1c1ccccc1 |  | 43.8 kMESF (inactive) |
| CCCCc1ccc(/C=C2/C(=O)ON=C2c2ccccc2)s1 |  | 38.4 kMESF (inactive) |
| O=C(/C=C/c1cc(Br)ccc1O)c1ccco1 |  | 40.2 kMESF (inactive) |
| Cc1ccc(S(=O)(=O)c2ccc([N+](=O)[O-])cn2)cc1 |  | 40.7 kMESF (inactive) |
| CCN1C(=O)/C(=C\C(=O)c2cccs2)c2cc(Br)ccc21 |  | 45.3 kMESF (inactive) |
| O=C(Oc1oc(-c2ccco2)nc1C=Nc1ccccc1)c1ccco1 |  | 43.5 kMESF (inactive) |
